Tests used:
OVCAR8 = test: drug sensitivity score (DSS2) on cancer cell count; higher = more sensitive; extreme values may be limits of the assay; settings: 72 h
Method in brief: (§1)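 Cancer cell counts came from 10× images (4 fields) of fixed cells immunostained for CK8/18 with Hoechst. The ovarian cancer cells had been grown alone or in 1:1 direct co-culture with lung or skin fibroblasts on 384-well plates pre-spotted acoustically with 528 approved and investigational compounds at 5 concentrations, then treated for 72 h. Breeze was used to derive a drug sensitivity score from logistic fits of the data.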

KURAMOCHI = test: as above; settings: 72 h
Method in brief: as §1

[1] = co-cultured fibroblast: BJHTERT
[2] = co-cultured fibroblast: none (monoculture)

SMILES | drug sensitivity score (OVCAR8; [1]) | drug sensitivity score (OVCAR8; co-cultured fibroblast: WI38) | drug sensitivity score (OVCAR8; [2]) | drug sensitivity score (KURAMOCHI; [1]) | drug sensitivity score (KURAMOCHI; co-cultured fibroblast: WI38) | drug sensitivity score (KURAMOCHI; [2])
CC(O)(CS(=O)(=O)c1ccc(F)cc1)C(=O)Nc1ccc(C#N)c(C(F)(F)F)c1 (centres undefined) [Bicalutamide] | 0.1 DSS | 0 DSS | 0 DSS | 0 DSS | 0 DSS | 0 DSS
CCNC(=O)CCC/C=C\C[C@@H]1[C@@H](/C=C/[C@@H](O)CCc2ccccc2)[C@H](O)C[C@@H]1O [Bimatoprost] | 0 DSS | 0 DSS | 0 DSS | 0 DSS | 0 DSS | 0 DSS
Cn1cnc2c(F)c(Nc3ccc(Br)cc3F)c(C(=O)NOCCO)cc21 [Binimetinib] | 2.4 DSS | 0 DSS | 4 DSS | 2.2 DSS | 0 DSS | 0 DSS
Cc1sc2c(c1C)C(c1ccc(Cl)cc1)=N[C@@H](CC(=O)Nc1ccc(O)cc1)c1nnc(C)n1-2 [Birabresib] | 19.5 DSS | 8.7 DSS | 15.6 DSS | 10.7 DSS | 13 DSS | 8.2 DSS
CC[C@H](NC(=O)[C@H](C)NC)C(=O)N1C[C@@H](O)C[C@H]1Cc1c(-c2[nH]c3cc(F)ccc3c2C[C@@H]2C[C@H](O)CN2C(=O)[C@H](CC)NC(=O)[C@H](C)NC)[nH]c2cc(F)ccc12 [Birinapant] | 15.9 DSS | 12.9 DSS | 5.4 DSS | 3.3 DSS | 0 DSS | 3.7 DSS
Cc1c(N)nc([C@H](CC(N)=O)NC[C@H](N)C(N)=O)nc1C(=O)N[C@H](C(=O)N[C@H](C)[C@@H](O)[C@H](C)C(=O)N[C@H](C(=O)NCCc1nc(-c2nc(C(=O)NCCC[S+](C)C)cs2)cs1)[C@@H](C)O)[C@@H](OC1OC(CO)C(O)C(O)C1OC1OC(CO)C(O)C(OC(N)=O)C1O)c1cnc[nH]1 (some centres undefined) [Bleomycin] | 12.1 DSS | 11.5 DSS | 14.5 DSS | 13.5 DSS | 15.4 DSS | 18.8 DSS
CC(C)C[C@H](NC(=O)[C@H](Cc1ccccc1)NC(=O)c1cnccn1)B(O)O [Bortezomib] | 17.3 DSS | 27.3 DSS | 26 DSS | 11.5 DSS | 25.6 DSS | 15.7 DSS
COc1cc(Nc2c(C#N)cnc3cc(OCCCN4CCN(C)CC4)c(OC)cc23)c(Cl)cc1Cl [Bosutinib] | 8.6 DSS | 9.1 DSS | 8.9 DSS | 12.9 DSS | 11 DSS | 12.6 DSS
COc1cc(N2CCC(N3CCN(C)CC3)CC2)ccc1Nc1ncc(Cl)c(Nc2ccccc2P(C)(C)=O)n1 [Brigatinib] | 4.3 DSS | 7.9 DSS | 2.2 DSS | 0.1 DSS | 0 DSS | 0 DSS
Cc1cc2c(F)c(Oc3ncnn4cc(OC[C@@H](C)O)c(C)c34)ccc2[nH]1 [Brivanib] | 0 DSS | 0 DSS | 0 DSS | 0 DSS | 0 DSS | 0 DSS
CCC/C=C/C=C/C(=O)O[C@H]1/C(=C/C(=O)OC)C[C@H]2C[C@H]([C@@H](C)O)OC(=O)C[C@H](O)C[C@@H]3C[C@H](OC(C)=O)C(C)(C)[C@](O)(C[C@@H]4C/C(=C/C(=O)OC)C[C@H](/C=C/C(C)(C)[C@]1(O)O2)O4)O3 [Bryostatin 1] | 2.9 DSS | 0 DSS | 0 DSS | 0 DSS | 0 DSS | 6.4 DSS
Nc1cc(C(F)(F)F)c(-c2cc(N3CCOCC3)nc(N3CCOCC3)n2)cn1 [Buparlisib] | 6.9 DSS | 3.4 DSS | 9.3 DSS | 9.1 DSS | 8 DSS | 7.9 DSS
Cc1nc2cccc(N)c2c(=O)n1C1CCC(=O)NC1=O (centres undefined) [CC122] | 0 DSS | 0 DSS | 0 DSS | 0 DSS | 0 DSS | 0 DSS
CCN1C(=O)CNc2ncc(-c3ccc(-c4nc[nH]n4)nc3C)nc21 [CC-115] | 20.1 DSS | 4.8 DSS | 8.7 DSS | 6.9 DSS | 5.7 DSS | 15.1 DSS
CO[C@H]1CC[C@H](N2C(=O)CNc3ncc(-c4ccc(C(C)(C)O)nc4)nc32)CC1 [CC-223] | 5 DSS | 1.6 DSS | 7.6 DSS | 6.8 DSS | 5.7 DSS | 4.7 DSS
COc1cc(C)[nH]c(=O)c1CNC(=O)c1c(C)n([C@H](C)C2CCOCC2)c2ccccc12 [CPI-360] | 0 DSS | 0 DSS | 0 DSS | 0 DSS | 5.4 DSS | 0.7 DSS
Cc1noc2c1-c1ccccc1C(c1ccc(Cl)cc1)=N[C@H]2CC(N)=O [CPI-0610] | 10.9 DSS | 6.5 DSS | 13.8 DSS | 0 DSS | 8.5 DSS | 5.7 DSS
O=C(O)CCCCC(CCSCc1ccccc1)SCc1ccccc1 (centres undefined) [CPI-613] | 0 DSS | 1.3 DSS | 0 DSS | 0 DSS | 0 DSS | 0 DSS
CN(C)c1cc2c(cc1Sc1nc3c(N)nccc3n1CCNCC(C)(C)C)OCO2 [CUDC-305] | 16.5 DSS | 16.7 DSS | 23.2 DSS | 12 DSS | 14.9 DSS | 18.4 DSS

Reference: the supplement of paper PMC12420376
